Source: patent US20040037843A1, “Inducing cellular immune responses to prostate cancer antigens using peptide and nucleic acid compositions” (priority 2003, published 2004)

biological target: HLA-A*0201 (Homo sapiens, UniProt P04439, D140Y/D185E/D98H/E176V/E277Q/G131W/G231S/I119V/I121R/I166T/I218V/L300P/L318F/N151K/N90K/P208A/P217A/Q86G/Q94H/R138H/R169H/T345S); assay: HLA class I binding assay, purified HLA, inhibition of 125I-labelled probe peptide; details: Binding affinity, Table XXII group headings ≦ 200 nM / > 200 nM; binding to HLA-A*0201

Compound | IC50
CC(C)C[C@H](NC(=O)[C@H](CC(C)C)NC(=O)CNC(=O)[C@H](CC(N)=O)NC(=O)[C@H](Cc1ccc(O)cc1)NC(=O)[C@@H](NC(=O)[C@H](CC(=O)O)NC(=O)[C@H](CC(C)C)NC(=O)[C@H](C)N)C(C)C)C(=O)O [PAP.299] | ≤ 200 nM

same assay, conditions: Table XXII group headings ≦ 200 nM / > 200 nM; binding to HLA-A*0201; read-out: Binding affinity

Compound | IC50
CC(C)C[C@H](NC(=O)[C@H](CO)NC(=O)[C@H](CC(C)C)NC(=O)[C@H](CO)NC(=O)[C@H](C)NC(=O)[C@H](C)NC(=O)[C@H](CCCNC(=N)N)NC(=O)[C@H](C)NC(=O)[C@H](CC(C)C)NC(=O)[C@H](CC(C)C)NC(=O)[C@@H](N)CC(C)C)C(=O)O [PAP.6] | ≤ 200 nM
CC(C)C[C@H](NC(=O)[C@@H](N)Cc1ccccc1)C(=O)N[C@@H](CC(N)=O)C(=O)N[C@@H](CCC(=O)O)C(=O)N[C@@H](CO)C(=O)N[C@@H](Cc1ccc(O)cc1)C(=O)N[C@@H](CCCCN)C(=O)N[C@@H](Cc1c[nH]cn1)C(=O)N[C@@H](CCC(=O)O)C(=O)N[C@@H](CCC(N)=O)C(=O)N[C@H](C(=O)O)C(C)C [PAP.92] | ≤ 200 nM
CC(C)C[C@H](NC(=O)[C@@H](N)CC(C)C)C(=O)N[C@@H](Cc1c[nH]cn1)C(=O)N[C@@H](CCC(=O)O)C(=O)N[C@H](C(=O)N[C@@H](CC(=O)O)C(=O)N[C@@H](CO)C(=O)N[C@@H](C)C(=O)N[C@H](C(=O)O)C(C)C)[C@@H](C)O [PSM.4] | > 200 nM
CC(C)C[C@H](NC(=O)[C@H](Cc1ccccc1)NC(=O)[C@H](Cc1ccccc1)NC(=O)CNC(=O)CNC(=O)[C@H](C)NC(=O)[C@H](CC(C)C)NC(=O)[C@@H](NC(=O)[C@H](CC(C)C)NC(=O)[C@H](C)N)C(C)C)C(=O)O [PSM.25] | > 200 nM
CC(C)C[C@H](NC(=O)[C@H](Cc1ccccc1)NC(=O)[C@H](Cc1ccccc1)NC(=O)CNC(=O)CNC(=O)[C@H](C)NC(=O)[C@H](CC(C)C)NC(=O)[C@@H](NC(=O)[C@@H](N)CC(C)C)C(C)C)C(=O)O [PSM.26] | ≤ 200 nM
CC(C)C[C@H](NC(=O)CN)C(=O)N[C@@H](CC(C)C)C(=O)NCC(=O)N[C@@H](CO)C(=O)N[C@H](C(=O)N[C@@H](CCC(=O)O)C(=O)N[C@@H](Cc1c[nH]c2ccccc12)C(=O)N[C@@H](C)C(=O)O)[C@@H](C)O [PSM.427] | > 200 nM
CC(C)C[C@H](NC(=O)[C@@H](N)CCCCN)C(=O)NCC(=O)N[C@@H](CO)C(=O)NCC(=O)N[C@@H](CC(N)=O)C(=O)N[C@@H](CC(=O)O)C(=O)N[C@@H](Cc1ccccc1)C(=O)N[C@@H](CCC(=O)O)C(=O)N[C@H](C(=O)O)C(C)C [PSM.514] | > 200 nM
CC[C@H](C)[C@H](NC(=O)[C@H](Cc1ccccc1)NC(=O)[C@H](C)NC(=O)[C@H](CCCNC(=N)N)NC(=O)[C@H](CCC(=O)O)NC(=O)[C@H](CC(C)C)NC(=O)[C@H](Cc1ccccc1)NC(=O)[C@H](CCSC)NC(=O)[C@H](CC(C)C)NC(=O)[C@@H](N)CCC(N)=O)C(=O)O [PSM.667] | ≤ 200 nM
